Source: article PMC3939009, “Thrombin inhibitory activity of some polyphenolic compounds” (Medicinal Chemistry Research, 2013)
pIC50, pKd: −log10 of the molar value. Read-outs that look alike come from different tables or passages of the source. Blank lines part the entries; values can stand above or below the compound they belong to.

Assays:
[1] = tested on: human thrombin; assay: Thrombin-induced platelet aggregation (turbidimetric); type: cell-based
Protocol: Blood samples in 0.32 % sodium citrate from healthy volunteers without cardiovascular disorders were collected, untreated with antiplatelet drugs. […] Platelets were isolated from PRP using BSA–Sepharose 2B gel filtration method according to Walkowiak et al. ([2000]). […] In these preparations, to nine volumes of thrombin one volume of polyphenolic compounds was added (final thrombin concentration was 15.8 nM). All tested compounds were dissolved in 50 % DMSO to the initial concentration of 10 mM; other solutions of compounds were also prepared in 50 % DMSO (prepared in 50 mM TBS, pH 7.4). […] The platelet aggregation was measured by turbidimetric method (Saluk-Juszczak et al., [2007]) using dual-channel Chrono-log optical aggregometer (Chronolog, USA). […] Platelet suspensions were pre-warmed at 37 °C with stirring.

[2] = target: T1, human thrombin (Homo sapiens, UniProt P00734); assay: Thrombin-induced fibrinogen polymerization; type: biochemical; set-up: Thrombin, also known as an active plasma coagulation factor II; purchased Sigma-Aldrich Chemical Co. (St. Louis, MO, USA) T7009; conditions: thrombin preincubated with compound; for Effect on thrombin ability to induce fibrinogen polymerization: 10 min 37 °C; for Concentration causing total inhibition of thrombin activity (fibrin polymerization): Vmax of fibrinogen polymerization at 595 nm
Protocol: In these preparations, to nine volumes of thrombin one volume of polyphenolic compounds was added (final thrombin concentration was 15.8 nM). All tested compounds were dissolved in 50 % DMSO to the initial concentration of 10 mM; other solutions of compounds were also prepared in 50 % DMSO (prepared in 50 mM TBS, pH 7.4). […] Polymerization of fibrin was monitored at 595 nm using a 96-well microtiter plate reader. To each reaction well of the microtiter plate, 100 μl of fibrinogen (3 mg/ml) in 50 mM TBS and 5 mM CaCl2, pH 7.4, were added. […] The maximal velocity of the polymerization process (V max, Δm OD/min) for each absorbance curve was determined (Nowak et al., [2007]).

[3] = target: T1, human thrombin; assay: BIAcore (SPR) analysis of binding to immobilized thrombin; set-up: Thrombin, also known as an active plasma coagulation factor II; purchased Sigma-Aldrich Chemical Co. (St. Louis, MO, USA) T7009; conditions: for Response (RU): analyte 1,000 μM, thrombin immobilized on CM5 chip
Protocol: The biosensor assays were performed using the BIAcore 1000 biosensor system. All biosensor analyses were performed with a phosphate-buffered saline (PBS), pH 7.4, as a running buffer. […] The immobilization of thrombin on a biosensor carboxylmethyl dextran surface was performed according to the BIA applications Handbook (BIAcore, [1994]). The process of protein immobilization was performed on a sensor chip CM5 surface by the positively charged functional groups of protein amino acids. The immobilization process consisted of four steps: preconcentration, activation, ligand immobilization and deactivation of the residual NHS esters. […] The temperature during the whole experiment was also constant and was set to 25.0 °C. […] Each of these solutions (10 μl) was injected into an empty sensor chip channel. […] The amount of injected activation mixture was modified, to regulate the amount of immobilized ligand. […] The conditions of the latter experiments were established by numerous pre-tests. The assessed parameters included: the buffer flow rate, the volume of analyte injection, the concentration of analytes, types and concentration of regenerators. […] For each injection of analyte solution, the volume used was 100 μl. After injection of analyte was completed, the dissociation step occurred and the level of the interaction ligand-analyte was measured. During dissociation, the particles non-covalently bound to the ligand were washed out from the working channel. […] To do these calculations, the formulas presented below were used: the association rate […]]; the dissociation rate -d[AB]/dt=kd·[AB]; the equilibrium constants: KA=[AB]/[A]·[B]=ka/kd KD=[A]·[B]/[AB]=kd/ka.

[4] = target: T1, human thrombin; assay: Analysis of thrombin inhibition parameters (Lineweaver–Burk curves); type: biochemical; set-up: Thrombin, also known as an active plasma coagulation factor II; purchased Sigma-Aldrich Chemical Co. (St. Louis, MO, USA) T7009; conditions: for k cat: compound at IC50 concentration, k cat = V max/E 0, control 29.1; for Type of inhibition: from Lineweaver–Burk curves; for V max of chromogenic substrate hydrolysis by thrombin / K m of chromogenic substrate hydrolysis by thrombin: thrombin incubated with compound at IC50 concentration; for V max of chromogenic substrate hydrolysis by thrombin: control 30.7; for K m of chromogenic substrate hydrolysis by thrombin: control 158.7
Protocol: Absorbance was monitored every 12 s for 10 min in a 96-well microplate reader. The velocity of reaction was expressed as the increase in product (pNA) over time (∆ μmol/min) using a computer program Mikcroplate Manager® 8 and the extinction coefficient of p-nitroaniline. […] Then, the Lineweaver–Burk ([1934]) curves for thrombin in the presence and in the absence of polyphenol compounds were plotted. The Lineweaver–Burk equation, which is a transformation of the Michaelis–Menten model, looks as follows: 1/V=Km/Vmax·1/[S]+1/Vmax

[5] = target: T1, human thrombin; assay: Amidolytic activity of thrombin (hydrolysis of chromogenic substrate D-Phe-Pip-Arg-pNA); type: biochemical; set-up: Thrombin, also known as an active plasma coagulation factor II; purchased Sigma-Aldrich Chemical Co. (St. Louis, MO, USA) T7009; host or cells: purified from human plasma
Protocol: (§1) All tested compounds were dissolved in 50 % DMSO to the initial concentration of 10 mM; other solutions of compounds were also prepared in 50 % DMSO (prepared in 50 mM TBS, pH 7.4). The final concentration of DMSO in thrombin samples was 5 %. To prepare thrombin control samples, the same volume of solvent (50 % DMSO prepared in 50 mM TBS, pH 7.4) was added as in the case of the compound volume and warmed for 10 min to 37 °C.
To each reaction well, 40 μl of 3 mM chromogenic substrate was added. To initiate the chromogenic reaction, 280 μl of control thrombin (without tested compounds) or thrombin after preincubation with a polyphenolic compound to every reaction well in the same moment was added. The absorbance value was monitored every 12 s for 10 min. The maximal velocity of the reaction (V max, Δm OD/min) for each absorbance curve was determined. IC50 value (parameter) for every polyphenolic compound from inhibition curves was estimated.

[6] = target: T1, human thrombin; assay: SDS-PAGE analysis of thrombin-induced cross-linked fibrin formation; type: biochemical; set-up: Thrombin, also known as an active plasma coagulation factor II; purchased Sigma-Aldrich Chemical Co. (St. Louis, MO, USA) T7009; host or cells: purified from human plasma
Protocol: as §1, with “In these preparations, to nine volumes of thrombin one volume of polyphenolic compounds was added (final thrombin concentration was 15.8 nM). All” for “All”
The reactions incubated at 37 °C were stopped after 5, 15 and 30 min by adding 150 μl of lysis buffer (0.125 M Tris/HCl, 4 % SDS, 8 M urea, 10 % β-mercaptoethanol, pH 6.8). Samples were subjected to SDS-PAGE (polyacrylamide concentration—7.5 %) using Mini-Protean Electrophoresis Cell (Bio-Rad, Hercules, CA). Proteins were stained with Coomassie Brilliant Blue R250 (CBB).

[7] = at 375 μM substrate concentration, compounds 0.1–1,000 μM, preincubation 10 min 37 °C, read-out: IC50, amidolytic activity of human thrombin
[8] = ten times IC50: cyanidin […], quercetin 15 μM, silybin 250 μM

SMILES: O=C1C[C@@H](c2ccc(O)cc2)Oc2cc(O)cc(O)c21 [Naringenin, naringenin]
- pIC50 [5, 7]: < 3.00

SMILES: O=c1c(-c2ccc(O)cc2)coc2cc(O)cc(O)c12 [Genistein, genistein]
- pIC50 [5]: < 3.00

SMILES: C[C@@H]1O[C@@H](OC[C@H]2O[C@@H](Oc3c(-c4ccc(O)c(O)c4)oc4cc(O)cc(O)c4c3=O)[C@H](O)[C@@H](O)[C@@H]2O)[C@H](O)[C@H](O)[C@H]1O [Rutin, rutin]
- pIC50 [5, 7]: < 3.00

SMILES: O=C(O)Cc1ccc(O)cc1 [4-Hydroxyphenylacetic acid, 4-hydroxyphenylacetic acid]
- pIC50 [5, 7]: < 3.00

SMILES: COc1cc(/C=C/C(=O)O)ccc1O [Ferulic acid, ferulic acid]
- pIC50 [5, 7]: < 3.00

SMILES: Oc1cc(O)c2c(c1)O[C@H](c1ccc(O)c(O)c1)[C@H](O)[C@H]2c1c(O)cc(O)c2c1O[C@H](c1ccc(O)c(O)c1)[C@H](O)C2 [Procyanidin B2, procyanidin B2]
- pIC50 [5, 7]: < 3.00

SMILES: O=C(O)/C=C/c1ccc(O)c(O)c1 [Caffeic acid, caffeic acid]
- pIC50 [5, 7]: < 3.00

SMILES: Oc1cc(O)c2cc(O)c(-c3ccc(O)c(O)c3)[o+]c2c1 [Cyanidin, cyanidin]
- Platelet aggregation, % of control ([1]; compound 5 μM preincubated with thrombin): 10%
- Effect on thrombin ability to induce fibrinogen polymerization [2]: inhibition of thrombin ability to induce fibrinogen polymerization
- Concentration causing total inhibition of thrombin activity (fibrin polymerization) [2]: 5 µM
- Response (RU) [3]: 2,251 RU
- k cat [4]: 28.7 s⁻¹
- Type of inhibition [4]: competitive inhibitors
- V max of chromogenic substrate hydrolysis by thrombin [4]: 30.3 10^−6 mol/min
- K m of chromogenic substrate hydrolysis by thrombin [4]: 600.6 10^−6 M
- Effect on formation of γ–γ chains and α-polymers ([6]; at IC50 concentration of amidolytic inhibition: cyanidin […], quercetin 1.5 μM): also inhibited the formation of γ–γ chains and α-polymers
- Effect on formation of γ–γ chains and α-polymers [6, 8]: significantly inhibited the formation of γ–γ chains and α-polymers

SMILES: O=C(O)c1cc(O)c(O)c(O)c1 [Gallic acid, gallic acid]
- pIC50 [5]: < 3.00

More lines, main results first:

- Concentration causing total inhibition of thrombin activity (fibrin polymerization) [2]: > 1,000 μM
- K A, equilibrium association constant ([3]; 5 sensorgrams, 50 to 1,000 μM): 53900 M⁻¹
- pKd ([3]; 5 sensorgrams, 50 to 1,000 μM, read-out: K D, equilibrium dissociation constant): 4.73
- kon ([3]; 5 sensorgrams, 50 to 1,000 μM, read-out: k a, association rate): 7.11 M⁻¹ s⁻¹
- koff ([3]; 5 sensorgrams, 50 to 1,000 μM, read-out: k d, dissociation rate): 0.000132 s⁻¹
- Response (RU) [3]: 1,424 RU
- k cat [4]: 25.6 s⁻¹
- Type of inhibition [4]: competitive inhibitors
- V max of chromogenic substrate hydrolysis by thrombin [4]: 27 10^−6 mol/min
- K m of chromogenic substrate hydrolysis by thrombin [4]: 550.5 10^−6 M
- pIC50 [5, 7]: 4.60
SMILES: COc1cc(C2Oc3cc([C@H]4Oc5cc(O)cc(O)c5C(=O)[C@@H]4O)ccc3OC2CO)ccc1O (stereo in doubt) [Silybin, silybin]
- Platelet aggregation, % of control ([1]; compound 1,000 μM preincubated with thrombin): 43%
- Effect on thrombin ability to induce fibrinogen polymerization [2]: inhibition of thrombin ability to induce fibrinogen polymerization
- Effect on formation of γ–γ chains and α-polymers [6, 8]: slightly reduced the formation of γ–γ chains and α-polymers

- pIC50 [5, 7]: < 3.00
SMILES: C[C@@H]1O[C@@H](O[C@H]2[C@H](Oc3cc(O)c4c(c3)O[C@H](c3ccc(O)cc3)CC4=O)O[C@H](CO)[C@@H](O)[C@@H]2O)[C@H](O)[C@H](O)[C@H]1O [Naringin, naringin]

- pIC50 [5, 7]: < 3.00
SMILES: COc1ccc([C@@H]2CC(=O)c3c(O)cc(O)cc3O2)cc1O [Hesperetin, hesperetin]

- pIC50 [5, 7]: < 3.00
SMILES: O=C(O)/C=C/c1ccc(O)cc1 [Coumaric acid, coumaric acid]

- pIC50 [5, 7]: < 3.00
SMILES: COc1ccc([C@@H]2CC(=O)c3c(O)cc(O[C@@H]4O[C@H](CO[C@@H]5O[C@@H](C)[C@H](O)[C@@H](O)[C@H]5O)[C@@H](O)[C@H](O)[C@H]4O)cc3O2)cc1O [Hesperidin, hesperidin]

- pIC50 [5, 7]: < 3.00
SMILES: Oc1ccc(/C=C/c2cc(O)cc(O)c2)cc1 [Resveratrol, resveratrol]

- pIC50 [5, 7]: < 3.00
SMILES: O=C(/C=C/c1ccc(O)c(O)c1)O[C@@H]1C[C@](O)(C(=O)O)C[C@@H](O)[C@H]1O [Chlorogenic acid, chlorogenic acid]
